Results: patent US4965280A, “Antifungal carbinols” (E. I. Du Pont de Nemours and Company, priority 1989, dated 1990)

Assays:
Experiment in all cases: Test E
CMN CHICKWEED = assay type: in vivo, Stellaria media
JET RAPE = assay type: in vivo, Brassica napus cv. Jet Neuf
WILD OATS = assay type: in vivo, Avena fatua
BONANZA BARLEY = assay type: in vivo, Hordeum vulgare cv. Bonanza
BLACK NIGHTSHAD = assay type: in vivo, Solanum nigrum
ANN. BLUEGRASS = assay type: in vivo, PO annua
WILD RADISH = assay type: in vivo, Raphanus raphanistrum
BLACKGRASS = assay type: in vivo, Alopercurus mysuroides
Excerpt: Seeds of the following crops and weeds are sown into 15 cm pots containing Sassafras sandy loam soil: wheat (Triticum aestivum cv. Park), barley (Hordeum vulgare cv. Bonanza), sugarbeet (Beta vulgaris cv. USH-11), rapeseed (Brassica napus cv. Jet Neuf), black nightshade (Solanum nigrum), chickweed (Stellaria media), lambsquarter (Chenopodium album), Galium aparine, knotweed (Polygonum aviculare), Kochia scoparia, Matricaria indora, redroot pigweed (Amaranthus retroflexus), smartweed (Polygonum persicaria), speedwell (Veronica persica), wild buckwheat (Polygonum convolvulus), wild mustard (Brassica spp.), wild radish (Raphanus raphanistrum), annual bluegrass (PO annua), annual ryegrass (Lolium multiflorum), blackgrass (Alopercurus mysuroides), green foxtail (Setaria viridis), and wild oats (Avena fatua). Compounds are formulated in a nonphytotoxic solvent and applied to the plants as a foliar spray or applied to the soil surface. Plants are treated at two stages: preemergence, or postemergence when the sugarbeets are at the 2-3 true leaf stage. Plants are grown in a temperature-controlled greenhouse for the duration of the test.
Weed control and crop injury are evaluated visually at 3-4 weeks after compound application, using a scale of 0 to 100%, where 0=no injury and 100=complete death of the plant. All plants are rated with respect to untreated plants (checks) grown in the greenhouse under identical conditions to the treated plants.

PARK WHEAT = assay type: in vivo, Triticum aestivum cv. Park

## C=C(c1ccccc1)C(O)(Cn1cncn1)c1ccc(F)cc1F (stereo not drawn) [Example 52, 2-(2,4-Difluorophenyl)-3-phenyl-1-(1H-1,2,4-triazol-1-yl)-3-buten-2-ol]
CMN CHICKWEED; POSTEMERGENCE 0064 GM/HA
  plant response: 0%
CMN CHICKWEED; POSTEMERGENCE 0125 GM/HA
  plant response: 0%
CMN CHICKWEED; POSTEMERGENCE 0250 GM/HA
  plant response: 0%
CMN CHICKWEED; POSTEMERGENCE 0500 GM/HA
  plant response: 0%
CMN CHICKWEED; PREEMERGENCE 0250 GM/HA
  plant response: 0%
JET RAPE; POSTEMERGENCE 0064 GM/HA
  plant response: 0%
JET RAPE; POSTEMERGENCE 0125 GM/HA
  plant response: 0%
JET RAPE; POSTEMERGENCE 0250 GM/HA
  plant response: 20%
JET RAPE; POSTEMERGENCE 0500 GM/HA
  plant response: 40%
JET RAPE; PREEMERGENCE 0250 GM/HA
  plant response: 20%
WILD OATS; POSTEMERGENCE 0064 GM/HA
  plant response: 0%
WILD OATS; POSTEMERGENCE 0125 GM/HA
  plant response: 0%
WILD OATS; POSTEMERGENCE 0250 GM/HA
  plant response: 20%
WILD OATS; POSTEMERGENCE 0500 GM/HA
  plant response: 30%
WILD OATS; PREEMERGENCE 0250 GM/HA
  plant response: 70%
BONANZA BARLEY; POSTEMERGENCE 0064 GM/HA
  plant response: 0%
BONANZA BARLEY; POSTEMERGENCE 0125 GM/HA
  plant response: 20%
BONANZA BARLEY; POSTEMERGENCE 0250 GM/HA
  plant response: 20%
BONANZA BARLEY; POSTEMERGENCE 0500 GM/HA
  plant response: 40%
BONANZA BARLEY; PREEMERGENCE 0250 GM/HA
  plant response: 100%
BLACK NIGHTSHAD; POSTEMERGENCE 0064 GM/HA
  plant response: 0%
BLACK NIGHTSHAD; POSTEMERGENCE 0125 GM/HA
  plant response: 0%
BLACK NIGHTSHAD; POSTEMERGENCE 0250 GM/HA
  plant response: 10%
BLACK NIGHTSHAD; POSTEMERGENCE 0500 GM/HA
  plant response: 70%
BLACK NIGHTSHAD; PREEMERGENCE 0250 GM/HA
  plant response: 100%
ANN. BLUEGRASS; POSTEMERGENCE 0064 GM/HA
  plant response: 30%
ANN. BLUEGRASS; POSTEMERGENCE 0125 GM/HA
  plant response: 40%
ANN. BLUEGRASS; POSTEMERGENCE 0250 GM/HA
  plant response: 60%
ANN. BLUEGRASS; POSTEMERGENCE 0500 GM/HA
  plant response: 70%
ANN. BLUEGRASS; PREEMERGENCE 0250 GM/HA
  plant response: 100%
WILD RADISH; POSTEMERGENCE 0064 GM/HA
  plant response: 10%
WILD RADISH; POSTEMERGENCE 0125 GM/HA
  plant response: 10%
WILD RADISH; POSTEMERGENCE 0250 GM/HA
  plant response: 50%
WILD RADISH; POSTEMERGENCE 0500 GM/HA
  plant response: 80%
WILD RADISH; PREEMERGENCE 0250 GM/HA
  plant response: 50%
BLACKGRASS; POSTEMERGENCE 0064 GM/HA
  plant response: 0%
BLACKGRASS; POSTEMERGENCE 0125 GM/HA
  plant response: 0%
BLACKGRASS; POSTEMERGENCE 0250 GM/HA
  plant response: 20%
BLACKGRASS; POSTEMERGENCE 0500 GM/HA
  plant response: 60%
BLACKGRASS; PREEMERGENCE 0250 GM/HA
  plant response: 20%
PARK WHEAT; POSTEMERGENCE 0064 GM/HA
  plant response: 30%
PARK WHEAT; POSTEMERGENCE 0125 GM/HA
  plant response: 30%
PARK WHEAT; POSTEMERGENCE 0250 GM/HA
  plant response: 40%
PARK WHEAT; POSTEMERGENCE 0500 GM/HA
  plant response: 50%
PARK WHEAT; PREEMERGENCE 0250 GM/HA
  plant response: 70%

## C=C(c1ccc(F)cc1)C(O)(Cn1cncn1)c1ccc(F)cc1F (stereo not drawn) [Example 4, 2-(2,4-Difluorophenyl)-3-(4-fluorophenyl)-1-(1H-1,2,4-triazol-1-yl)-3-buten-2-ol]
CMN CHICKWEED; POSTEMERGENCE 0064 GM/HA
  plant response: 0%
CMN CHICKWEED; POSTEMERGENCE 0125 GM/HA
  plant response: 0%
CMN CHICKWEED; POSTEMERGENCE 0250 GM/HA
  plant response: 0%
CMN CHICKWEED; POSTEMERGENCE 0500 GM/HA
  plant response: 0%
CMN CHICKWEED; PREEMERGENCE 0500 GM/HA
  plant response: 0%
JET RAPE; POSTEMERGENCE 0064 GM/HA
  plant response: 0%
JET RAPE; POSTEMERGENCE 0125 GM/HA
  plant response: 20%
JET RAPE; POSTEMERGENCE 0250 GM/HA
  plant response: 20%
JET RAPE; POSTEMERGENCE 0500 GM/HA
  plant response: 30%
JET RAPE; PREEMERGENCE 0500 GM/HA
  plant response: 40%
WILD OATS; POSTEMERGENCE 0064 GM/HA
  plant response: 0%
WILD OATS; POSTEMERGENCE 0125 GM/HA
  plant response: 0%
WILD OATS; POSTEMERGENCE 0250 GM/HA
  plant response: 0%
WILD OATS; POSTEMERGENCE 0500 GM/HA
  plant response: 30%
WILD OATS; PREEMERGENCE 0500 GM/HA
  plant response: 90%
BONANZA BARLEY; POSTEMERGENCE 0064 GM/HA
  plant response: 20%
BONANZA BARLEY; POSTEMERGENCE 0125 GM/HA
  plant response: 30%
BONANZA BARLEY; POSTEMERGENCE 0250 GM/HA
  plant response: 40%
BONANZA BARLEY; POSTEMERGENCE 0500 GM/HA
  plant response: 60%
BONANZA BARLEY; PREEMERGENCE 0500 GM/HA
  plant response: 100%
BLACK NIGHTSHAD; POSTEMERGENCE 0064 GM/HA
  plant response: 10%
BLACK NIGHTSHAD; POSTEMERGENCE 0125 GM/HA
  plant response: 30%
BLACK NIGHTSHAD; POSTEMERGENCE 0250 GM/HA
  plant response: 70%
BLACK NIGHTSHAD; POSTEMERGENCE 0500 GM/HA
  plant response: 90%
BLACK NIGHTSHAD; PREEMERGENCE 0500 GM/HA
  plant response: 100%
ANN. BLUEGRASS; POSTEMERGENCE 0064 GM/HA
  plant response: 0%
ANN. BLUEGRASS; POSTEMERGENCE 0125 GM/HA
  plant response: 20%
ANN. BLUEGRASS; POSTEMERGENCE 0250 GM/HA
  plant response: 40%
ANN. BLUEGRASS; POSTEMERGENCE 0500 GM/HA
  plant response: 60%
ANN. BLUEGRASS; PREEMERGENCE 0500 GM/HA
  plant response: 100%
WILD RADISH; POSTEMERGENCE 0064 GM/HA
  plant response: 20%
WILD RADISH; POSTEMERGENCE 0125 GM/HA
  plant response: 60%
WILD RADISH; POSTEMERGENCE 0250 GM/HA
  plant response: 80%
WILD RADISH; POSTEMERGENCE 0500 GM/HA
  plant response: 90%
WILD RADISH; PREEMERGENCE 0500 GM/HA
  plant response: 50%
BLACKGRASS; POSTEMERGENCE 0064 GM/HA
  plant response: 0%
BLACKGRASS; POSTEMERGENCE 0125 GM/HA
  plant response: 20%
BLACKGRASS; POSTEMERGENCE 0250 GM/HA
  plant response: 20%
BLACKGRASS; POSTEMERGENCE 0500 GM/HA
  plant response: 50%
BLACKGRASS; PREEMERGENCE 0500 GM/HA
  plant response: 90%
PARK WHEAT; POSTEMERGENCE 0064 GM/HA
  plant response: 0%
PARK WHEAT; POSTEMERGENCE 0125 GM/HA
  plant response: 10%
PARK WHEAT; POSTEMERGENCE 0250 GM/HA
  plant response: 30%
PARK WHEAT; POSTEMERGENCE 0500 GM/HA
  plant response: 50%
PARK WHEAT; PREEMERGENCE 0500 GM/HA
  plant response: 80%
